For data set [1], the target named is Phosphatidylinositol 4,5-bisphosphate 3-kinase catalytic subunit alpha isoform (Homo sapiens, UniProt P42336). In words: Inhibition of PI3K-alpha (unknown origin) by mobility shift assay.
Data set [2] in a line: Metabolic stability in rat S9 fraction assessed as compound remaining measured at 60 mins. The format is ADME. To be noted: read-out: Stability.
Data set [3] concerns PC-3. In words: Antitumor activity against human PC3 cells xenografted in mouse assessed as tumor volume reduction at 50 mg/kg, po qd for 21 days relative to control. The format is functional. On the set-up: scale not given: the % may be the effect or the level left.
For data set [4], the system named is PC-3. To be noted: Homo sapiens.
Data set [5] concerns PC-3. To be noted: Homo sapiens, TDE = time-dependent effect.
The next data set in a line: cells. Particulars: Homo sapiens, PC-3, 1 h.
Data set [6] is filed under the species Mus musculus. As to the kind of experiment: animal or person. Particulars: PC-3, po, 2 h, read-out: INH.
The species named for data set [7] is Mus musculus. In words: animal or person. To be noted: PC-3, po, 2 h, read-out: INH. This is another data set of the same source.
The species entered for data set [8] is Mus musculus. In words: animal or person. Particulars: PC-3, po, 4 h, read-out: INH.
Data set [9] is filed under the species Mus musculus. As to the kind of experiment: animal or person. Particulars: PC-3, po, 8 h, read-out: INH.
The species named for data set [10] is Mus musculus. In words: animal or person. To be noted: PC-3, po, 24 h, read-out: INH.
For data set [11], the species on record is Mus musculus. In words: animal or person. To be noted: PC-3, po, 4 h, read-out: INH. This is another data set of the same source.
For data set [12], the species on record is Mus musculus. In words: animal or person. Particulars: PC-3, po, 8 h, read-out: INH. The source holds these as a separate data set.
The species named for data set [13] is Mus musculus. As to the kind of experiment: animal or person. Particulars: PC-3, po, 24 h, read-out: INH. The source holds these as a separate data set.
Data set [14] in a line: Clearance in rat at 2 mg/kg, iv. To be noted: in vivo. The data set is classed as ADME, organism-based.
Data set [15] can be described thus: Cmax in rat at 5 mg/kg, po. The data set is classed as ADME, organism-based. Further details: dose 5 mg/kg, route oral. To be noted: in vivo.
Data set [16] can be described thus: Tmax in rat at 5 mg/kg, po. The data set is classed as ADME, organism-based. To be noted: in vivo.
Data set [17] in a line: AUC (0 to infinity) in rat at 5 mg/kg, po. The data set is classed as ADME, organism-based. Further details: dose 5 mg/kg, time infinity, route oral. Particulars: in vivo.
The nature of data set [18]: Oral bioavailability in rat at 5 mg/kg. The format is ADME, organism-based. To be noted: in vivo.
Data set [19] in a line: Cmax in rat at 10 mg/kg, po. The data set is classed as ADME, organism-based. On the set-up: dose 10 mg/kg, route oral. To be noted: in vivo.

What is called IC50 is the point on the concentration scale where inhibition reaches its midpoint. As a reminder, the clearance is a measure of how efficiently the substance is removed, as volume per time. For orientation: Cmax means the maximum level reached in the sampled fluid or tissue. Broadly, the Tmax is the time at which the peak concentration occurs. As usually defined, the AUC(0-inf) is total exposure, with the tail of the curve extrapolated. One may read the bioavailability as the share of a dose that reaches the circulation, judged against a reference dose that is usually intravenous.

Molecules are shown by their SMILES.

Chain of Phosphatidylinositol 4,5-bisphosphate 3-kinase catalytic subunit alpha isoform (P42336 whole entry, canonical isoform): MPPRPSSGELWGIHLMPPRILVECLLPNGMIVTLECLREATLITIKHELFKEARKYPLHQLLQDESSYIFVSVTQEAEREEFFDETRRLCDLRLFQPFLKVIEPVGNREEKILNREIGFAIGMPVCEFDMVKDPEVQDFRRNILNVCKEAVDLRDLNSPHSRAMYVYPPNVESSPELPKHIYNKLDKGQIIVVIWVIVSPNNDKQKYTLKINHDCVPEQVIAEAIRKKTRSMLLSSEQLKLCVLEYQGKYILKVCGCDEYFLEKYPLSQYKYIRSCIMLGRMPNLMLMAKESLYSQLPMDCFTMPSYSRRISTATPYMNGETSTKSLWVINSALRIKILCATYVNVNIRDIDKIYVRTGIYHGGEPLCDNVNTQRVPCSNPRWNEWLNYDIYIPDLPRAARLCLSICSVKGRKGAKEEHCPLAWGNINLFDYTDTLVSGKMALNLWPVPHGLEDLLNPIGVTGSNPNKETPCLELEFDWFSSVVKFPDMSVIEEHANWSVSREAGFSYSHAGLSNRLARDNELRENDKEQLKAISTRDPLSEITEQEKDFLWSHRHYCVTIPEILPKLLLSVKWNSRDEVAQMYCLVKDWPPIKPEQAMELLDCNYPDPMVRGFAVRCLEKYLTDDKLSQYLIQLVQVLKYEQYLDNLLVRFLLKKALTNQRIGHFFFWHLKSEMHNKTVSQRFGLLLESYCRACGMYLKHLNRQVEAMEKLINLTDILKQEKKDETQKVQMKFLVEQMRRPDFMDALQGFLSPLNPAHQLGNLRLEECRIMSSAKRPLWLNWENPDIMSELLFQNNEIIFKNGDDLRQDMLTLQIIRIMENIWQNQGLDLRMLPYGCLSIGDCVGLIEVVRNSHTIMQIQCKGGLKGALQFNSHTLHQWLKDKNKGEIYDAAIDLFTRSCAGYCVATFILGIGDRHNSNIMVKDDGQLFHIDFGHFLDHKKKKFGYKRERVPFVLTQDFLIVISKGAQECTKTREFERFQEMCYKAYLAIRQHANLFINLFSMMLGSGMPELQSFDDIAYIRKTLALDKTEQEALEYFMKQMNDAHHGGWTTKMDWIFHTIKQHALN

For `CC(C)(O)c1ccc(-c2cnc3c(n2)N(CC2CCOCC2)CC(=O)N3)cn1`, the results for the IC50 (in data set [1]; in the data set “cells”) were > 30 µM and 0.32 µM, respectively. For the same molecule, the remaining at 1 h in data set [2] was determined as 100%. Moreover, the Activity in the data set on PC-3 [3] worked out at 84%. Further, the TGI entry in the data set on PC-3 [4] was “Dose-dependent effect”; with PC-3 [5], “tde”. For the same molecule, the inhibition in vivo at 100 mg/kg in the data set listed under Mus musculus [6] stood at 88%; in the data set filed under Mus musculus [7] it was 85%; in the data set filed under Mus musculus [8], 86%; in the data set filed under Mus musculus [9], 88%; in the data set listed under Mus musculus [10] it was 83%; in the data set listed under Mus musculus [11], 73%. The inhibition in vivo at 100 mg/kg worked out at 71% in the data set listed under Mus musculus [12] and 65% in the data set filed under Mus musculus [13].
`CC(C)(O)c1ccc(-c2cnc3c(n2)N(CCC2CCOCC2)C(=O)CN3)cn1`: the remaining at 1 h in [2] was determined as 73%. Moreover, the clearance in data set [14] is 9 mL/min/kg. The molecule further yielded a Cmax in data set [15] of 1700 nM. Besides, the Tmax in data set [16] was found to be 36 min. In addition, the AUC(0-inf) in [17] is 14 µM·h. In [18], the bioavailability came to 58%. Also, the Activity with PC-3 [3] worked out at 59%. In addition, the TGI result in the data set with PC-3 [4] is “Dose-dependent effect”; in the data set on PC-3 [5], “tde”. This molecule also yielded an IC50 in the data set “cells” of 0.09 µM. The inhibition in vivo at 100 mg/kg in the data set listed under Mus musculus [6] was determined as 71%; in the data set listed under Mus musculus [7] it was 82%; in the data set filed under Mus musculus [8] it was 80%; in the data set filed under Mus musculus [9], 88%; in the data set listed under Mus musculus [10], 59%; in the data set listed under Mus musculus [11], 63%. In addition, the inhibition in vivo at 100 mg/kg was 78% in the data set filed under Mus musculus [12] and 69% in the data set filed under Mus musculus [13].
As to `O=C1CN(CCC2CCOCC2)c2nc(-c3ccc(-c4nc[nH]n4)cc3)cnc2N1`, the remaining at 1 h in [2] is 61%. The Cmax in [19] is < 2.13 nM. The molecule also displayed a clearance in data set [14] of 13.8 mL/min/kg.
On to `CO[C@H]1CC[C@@H](N2CC(=O)Nc3ncc(-c4ccc(C(C)(C)O)nc4)nc32)CC1`, for which the concentration for half-maximal inhibition (IC50) in data set [1] was 11.1 µM; in the data set “cells”, 0.33 µM. For the same molecule, the concentration in data set [15] peaked (Cmax) at 2770 nM. The molecule further displayed an AUC(0-inf) in data set [17] of 26.6 µM·h. In addition, the inhibition in vivo at 100 mg/kg in the data set filed under Mus musculus [6] amounted to 80%; in the data set listed under Mus musculus [7] it was 72%; in the data set listed under Mus musculus [8], 54%; in the data set filed under Mus musculus [9], 52%; in the data set filed under Mus musculus [10], 70%; in the data set listed under Mus musculus [11] it was 34%. Further, the inhibition in vivo at 100 mg/kg amounted to 59% in the data set listed under Mus musculus [12] and 45% in the data set filed under Mus musculus [13].
On to `CO[C@H]1CC[C@H](N2CC(=O)Nc3ncc(-c4ccc(C(C)(C)O)nc4)nc32)CC1`, for which the IC50 in data set [1] was found to be 16.4 µM; in “cells” it was 0.35 µM. The remaining at 1 h in [2] was 94%. In data set [14], the clearance came to 1.7 mL/min/kg. The maximum concentration (Cmax) in [15] is 6300 nM. Moreover, the AUC(0-inf) in [17] came to 90 µM·h. This molecule also registered a bioavailability in data set [18] of 70%. In addition, the Activity in the data set with PC-3 [3] came to 90%. For the same molecule, the TGI result in the data set on PC-3 [4] was “Dose-dependent effect”; with PC-3 [5], “tde”. The inhibition in vivo at 100 mg/kg in the data set filed under Mus musculus [6] stood at 87%; in the data set listed under Mus musculus [7] it was 75%; in the data set filed under Mus musculus [8], 90%; in the data set filed under Mus musculus [9], 85%; in the data set filed under Mus musculus [10], 85%; in the data set filed under Mus musculus [11] it was 62%. The inhibition in vivo at 100 mg/kg in the data set listed under Mus musculus [12] came to 69%; in the data set listed under Mus musculus [13] it was 61%.

Values taken from ChEMBL document CHEMBL3585315, “Discovery of mammalian target of rapamycin (mTOR) kinase inhibitor CC-223” (J Med Chem, 2015).
